Experiment [1] deals with breast cancer cell line MX-1. Nature of the experiment: MX-1 cell line proliferation assay (3-day, Cell Titer Glo). Conditions: Homo sapiens, MX1, MX-1 cells, 72 hours, read-out: Cellular proliferation: EC50. Format: cell-based, human. As to the method:
The impact of compounds of the Examples on cancer cell proliferation was determined using the breast cancer cell line MX-1 (ATCC) in a 3-day proliferation assay. MX-1 cells were maintained in RPMI supplemented with 10% FBS at 37 C.° and an atmosphere of 5% CO2. For compound testing, MX-1 cells were plated in 96-well black bottom plates at a density of 5000 cells/well in 90 μl of culture media and incubated at 37° overnight to allow cell adhesion and spreading. Compound dilution series were prepared in DMSO via a 3-fold serial dilution from 3 mM to 0.1 μM. The DMSO dilution series were then diluted 1:100 in phosphate buffered saline, and 10 μL of the resulted solution were added to the appropriate wells of the MX-1 cell plate. The final compound concentrations in the wells were 3, 1, 0.3, 0.1, 0.03, 0.01, 0.003, 0.001, 0.0003 and 0.0001 μM.
Luminescence readings from the Cell Titer Glo assay were normalized to the DMSO treated cells and analyzed using the GraphPad Prism software with sigmoidal curve fitting to obtain EC50s. The minimum significant ratio (MSR) was determined to evaluate assay reproducibility (Eastwood et al., (2006) J Biomol Screen, 11: 253-261).
For orientation: ATP-based viability assays read luminescence as a measure of living cells.

A further experiment deals with BRD4 (BDII_E352-M457) (Homo sapiens (Human), UniProt O60885). Nature of the experiment: TR-FRET bromodomain binding assay, BRD4 second bromodomain. Conditions: His-tagged BD2, 30 nM Alexa647 probe. As to the method:
(§1) A time-resolved fluorescence resonance energy transfer (TR-FRET) assay was used to determine the affinities of compounds of the Examples listed in Table 1 for each bromodomain of BRD4. His-tagged first (BD1: amino acids K57-E168) and second (BD2: amino acids E352-E168) bromodomains of BRD4 were expressed and purified. An Alexa647-labeled BET-inhibitor was used as the fluorescent probe in the assay.
(§2) Compound dilution series were prepared in DMSO via a 3-fold serial dilution from 2.5 mM to 42 nM. Compounds were then diluted 6:100 in assay buffer (20 mM Sodium Phosphate, pH 6.0, 50 mM NaCl, 1 mM EDTA, 0.01% Triton X-100, 1 mM DTT) to yield 3× working solutions. Six microliters (μL) of the working solution was then transferred to white, low-volume assay plates (Costar #3673). A 1.5× assay mixture containing His-tagged bromodomain, Europium-conjugated anti-His antibody (Invitrogen PV5596) and the Alexa-647-conjugated probe molecule was also prepared. Twelve μL of this solution were added to the assay plate to reach a final volume of 18 μL. The final concentration of 1× assay buffer contains 2% DMSO, 50 μM−0.85 nM compound, 8 nM bromodomain, 1 nM antibody and 100 or 30 nM probe (for BDI or BDII, respectively). After a one-hour incubation at room temperature, TR-FRET ratios were determined using an Envision multilabel plate reader (Ex 340, Em 495/520).
(§3) TR-FRET data were normalized to the means of 24 no-compound controls (“high”) and 8 controls containing 1 μM un-labeled probe (“low”). Percent inhibition was plotted as a function of compound concentration and the data were fit with the 4 parameter logistic equation to obtain IC50s Inhibition constants (Ki) were calculated from the IC50s, probe Kd and probe concentration. Typical Z′ values were between 0.65 and 0.75. The minimum significant ratio was determined to evaluate assay reproducibility (Eastwood et al., (2006) J Biomol Screen, 11: 253-261). The MSR was determined to be 2.03 for BDI and 1.93 for BDII, and a moving MSR (last six run MSR overtime) for both BDI and BDII was typically <3.
A general note: TR-FRET usually uses a lanthanide donor and a delayed reading to cut background.

Another experiment has as its target BRD4 (BDI_K57-E168) (Homo sapiens (Human), UniProt O60885). In words: TR-FRET bromodomain binding assay, BRD4 first bromodomain. Conditions: His-tagged BD1, 100 nM Alexa647 probe. As for the experimental part: as §1, §2, §3

What is called Ki is a dissociation constant, usually derived from enzyme kinetics or from competition with a known ligand. A high value points to a looser hold on the target.

With `Cc1[nH]c(-c2cc(N)ccc2Oc2ccccc2)c2c1C(=O)CCC2` [Example 39, 1-(5-amino-2-phenoxyphenyl)-3-methyl-2,5,6,7-tetrahydro-4H-isoindol-4-one], in experiment [1], the EC50 is 232 nM. The results for the Ki at BRD4 (BDII_E352-M457) and on BRD4 (BDI_K57-E168) were 365 nM and 148 nM, respectively.

As to `Cc1[nH]c(-c2cc(NS(C)(=O)=O)ccc2Oc2ccccc2)c2c1C(=O)CC(C(C)C)C2` (stereo not drawn) [Example 71, N-{3-[3-methyl-4-oxo-6-(propan-2-yl)-4,5,6,7-tetrahydro-2H-isoindol-1-yl]-4-phenoxyphenyl}methanesulfonamide], the EC50 in experiment [1] came to 950 nM. Further, the Ki at BRD4 (BDII_E352-M457) was determined as 926 nM; at BRD4 (BDI_K57-E168), 375 nM.

With `Cc1[nH]c(-c2cccc(NS(C)(=O)=O)c2)c2c1C(=O)CC(C)(C)C2` [Example 64, N-[3-(3,6,6-trimethyl-4-oxo-4,5,6,7-tetrahydro-2H-isoindol-1-yl)phenyl]methanesulfonamide], the EC50 in experiment [1] was > 3000 nM. In addition, the figures for the Ki on BRD4 (BDII_E352-M457) and at BRD4 (BDI_K57-E168) were 409 nM and 576 nM, respectively.

With `Cc1[nH]c(-c2ccccc2OCCN2CCOCC2)c2c1C(=O)CCC2` [Example 33, 3-methyl-1-{2-[2-(morpholin-4-yl)ethoxy]phenyl}-2,5,6,7-tetrahydro-4H-isoindol-4-one], the EC50 in experiment [1] is > 3000 nM. For the same compound, the Ki on BRD4 (BDII_E352-M457) came to 8160 nM; at BRD4 (BDI_K57-E168) it was 1040 nM.

As to `COc1cc(-c2[nH]c(C)c3c2CCCC3=O)cc(OC)c1OC` [Example 7, 3-methyl-1-(3,4,5-trimethoxyphenyl)-2,5,6,7-tetrahydro-4H-isoindol-4-one], the EC50 in experiment [1] is 676 nM. Moreover, the Ki was 805 nM on BRD4 (BDII_E352-M457) and 261 nM on BRD4 (BDI_K57-E168).

Turning to `Cc1[nH]c(-c2ccc(S(N)(=O)=O)cc2)c2c1C(=O)CCC2` [Example 5, 4-(3-methyl-4-oxo-4,5,6,7-tetrahydro-2H-isoindol-1-yl)benzenesulfonamide], the EC50 in experiment [1] is 3700 nM. Besides, the results for the Ki at BRD4 (BDII_E352-M457) and on BRD4 (BDI_K57-E168) were 2030 nM and 1400 nM, respectively.

In the case of `Cc1[nH]c(-c2ccccc2OCc2ccccc2)c2c1C(=O)CCC2` [Example 18, 1-[2-(benzyloxy)phenyl]-3-methyl-2,5,6,7-tetrahydro-4H-isoindol-4-one], the EC50 in experiment [1] was determined as 1230 nM. Further, the inhibitory constant (Ki) is 2030 nM at BRD4 (BDII_E352-M457) and 943 nM on BRD4 (BDI_K57-E168).

Regarding `Cc1[nH]c(-c2cccc(C(N)=O)c2)c2c1C(=O)CCC2` [Example 9, 3-(3-methyl-4-oxo-4,5,6,7-tetrahydro-2H-isoindol-1-yl)benzamide], the EC50 in experiment [1] came to 2750 nM. Moreover, the inhibition constant Ki at BRD4 (BDII_E352-M457) is 3100 nM; at BRD4 (BDI_K57-E168), 961 nM.

Turning to `CCNC(=O)c1ccc(Oc2ccccc2)c(-c2[nH]c(C)c3c2CCCC3=O)c1` [Example 55, N-ethyl-3-(3-methyl-4-oxo-4,5,6,7-tetrahydro-2H-isoindol-1-yl)-4-phenoxybenzamide], the EC50 in experiment [1] was 1390 nM. Also, the Ki at BRD4 (BDII_E352-M457) amounted to 511 nM; at BRD4 (BDI_K57-E168) it was 77 nM.

For the compound `Cc1[nH]c(-c2cc(N)ccc2Sc2ccccc2)c2c1C(=O)CCC2` [Example 43, 1-[5-amino-2-(phenylsulfanyl)phenyl]-3-methyl-2,5,6,7-tetrahydro-4H-isoindol-4-one], the EC50 in experiment [1] was > 3000 nM. Besides, the figures for the Ki on BRD4 (BDII_E352-M457) and at BRD4 (BDI_K57-E168) were 568 nM and 1820 nM, respectively.

As for `Cc1[nH]c(-c2cc(NS(C)(=O)=O)ccc2Oc2ccccc2)c2c1C(=O)CC(C)C2` (stereo not drawn) [Example 67, N-[3-(3,6-dimethyl-4-oxo-4,5,6,7-tetrahydro-2H-isoindol-1-yl)-4-phenoxyphenyl]methanesulfonamide], in experiment [1], the EC50 is 110 nM. Besides, the Ki on BRD4 (BDII_E352-M457) turned out to be 68 nM; on BRD4 (BDI_K57-E168), 12 nM.

Regarding `CC(=O)Nc1ccc(Oc2ccccc2)c(-c2c3c(c(C)n2C)C(=O)CCC3)c1` [Example 42, N-[3-(2,3-dimethyl-4-oxo-4,5,6,7-tetrahydro-2H-isoindol-1-yl)-4-phenoxyphenyl]acetamide], the EC50 in experiment [1] is > 3000 nM. The inhibitory constant (Ki) at BRD4 (BDII_E352-M457) worked out at 1090 nM; at BRD4 (BDI_K57-E168), 569 nM.

With `Cc1[nH]c(-c2ccccc2)c2c1C(=O)CCC2` [Example 1, 3-methyl-1-phenyl-2,5,6,7-tetrahydro-4H-isoindol-4-one], in experiment [1], the EC50 amounted to 3400 nM. Also, the Ki on BRD4 (BDII_E352-M457) was determined as 3070 nM; at BRD4 (BDI_K57-E168) it was 3680 nM.

As for `Cc1[nH]c(-c2ccccc2Oc2ccccc2)c2c1C(=O)CC(C)C2` (stereo not drawn) [Example 65, 3,6-dimethyl-1-(2-phenoxyphenyl)-2,5,6,7-tetrahydro-4H-isoindol-4-one], in experiment [1], the EC50 worked out at 1780 nM. Moreover, the Ki is 382 nM on BRD4 (BDII_E352-M457) and 184 nM at BRD4 (BDI_K57-E168).

Turning to `Cc1[nH]c(-c2ccccc2OCC2CCOCC2)c2c1C(=O)CCC2` [Example 32, 3-methyl-1-[2-(tetrahydro-2H-pyran-4-ylmethoxy)phenyl]-2,5,6,7-tetrahydro-4H-isoindol-4-one], the EC50 in experiment [1] came out at 1880 nM. The results for the inhibition constant (Ki) on BRD4 (BDII_E352-M457) and on BRD4 (BDI_K57-E168) were 1940 nM and 202 nM, respectively.

As for `Cc1[nH]c(-c2cc(NS(=O)(=O)N(C)C)ccc2Oc2ccc(F)cc2F)c2c1C(=O)CCC2` [Example 49, N′-[4-(2,4-difluorophenoxy)-3-(3-methyl-4-oxo-4,5,6,7-tetrahydro-2H-isoindol-1-yl)phenyl]-N,N-dimethylsulfuric Diamide], the EC50 in experiment [1] is 364 nM. Moreover, the Ki stood at 192 nM at BRD4 (BDII_E352-M457) and 43 nM at BRD4 (BDI_K57-E168).

Turning to `Cc1[nH]c(-c2ccccc2OCC2CCCO2)c2c1C(=O)CCC2` (stereo not drawn) [Example 31, 3-methyl-1-[2-(tetrahydrofuran-2-ylmethoxy)phenyl]-2,5,6,7-tetrahydro-4H-isoindol-4-one], in experiment [1], the EC50 is > 3000 nM. Further, the Ki on BRD4 (BDII_E352-M457) turned out to be 4680 nM; at BRD4 (BDI_K57-E168), 765 nM.

For the compound `Cc1[nH]c(-c2ccccc2OCc2cccnc2)c2c1C(=O)CCC2` [Example 37, 3-methyl-1-[2-(pyridin-3-ylmethoxy)phenyl]-2,5,6,7-tetrahydro-4H-isoindol-4-one], in experiment [1], the EC50 is > 3000 nM. Moreover, the Ki amounted to 4140 nM on BRD4 (BDII_E352-M457) and 526 nM on BRD4 (BDI_K57-E168).

Take `CC(=O)Nc1ccc(Oc2ccc(F)cc2F)c(-c2[nH]c(C)c3c2CCCC3=O)c1` [Example 50, N-[4-(2,4-difluorophenoxy)-3-(3-methyl-4-oxo-4,5,6,7-tetrahydro-2H-isoindol-1-yl)phenyl]acetamide]: the EC50 in experiment [1] was 609 nM. For the same compound, the figures for the Ki at BRD4 (BDII_E352-M457) and on BRD4 (BDI_K57-E168) were 551 nM and 71 nM, respectively.

Regarding `Cc1c2c(c(-c3cc(NS(C)(=O)=O)ccc3Oc3ccccc3)n1C)CCCC2=O` [Example 41, N-[3-(2,3-dimethyl-4-oxo-4,5,6,7-tetrahydro-2H-isoindol-1-yl)-4-phenoxyphenyl]methanesulfonamide], the EC50 in experiment [1] was found to be 370 nM. The Ki stood at 216 nM at BRD4 (BDII_E352-M457) and 161 nM at BRD4 (BDI_K57-E168).

In the case of `Cc1[nH]c(-c2cc(NS(C)(=O)=O)ccc2Sc2ccccc2)c2c1C(=O)CCC2` [Example 44, N-[3-(3-methyl-4-oxo-4,5,6,7-tetrahydro-2H-isoindol-1-yl)-4-(phenylsulfanyl)phenyl]methanesulfonamide], in experiment [1], the EC50 is 645 nM. The figures for the Ki at BRD4 (BDII_E352-M457) and at BRD4 (BDI_K57-E168) were 37 nM and 67 nM, respectively.

As to `Cc1[nH]c(-c2ccccc2OCC2CCOC2)c2c1C(=O)CCC2` (stereo not drawn) [Example 29, 3-methyl-1-[2-(tetrahydrofuran-3-ylmethoxy)phenyl]-2,5,6,7-tetrahydro-4H-isoindol-4-one], the EC50 in experiment [1] is > 3000 nM. Moreover, the results for the Ki on BRD4 (BDII_E352-M457) and at BRD4 (BDI_K57-E168) were 2920 nM and 315 nM, respectively.

Take `Cc1[nH]c(-c2cc(C(=O)NCC3CCCO3)ccc2Oc2ccccc2)c2c1C(=O)CCC2` (stereo not drawn) [Example 56, 3-(3-methyl-4-oxo-4,5,6,7-tetrahydro-2H-isoindol-1-yl)-4-phenoxy-N-(tetrahydrofuran-2-ylmethyl)benzamide]: the EC50 in experiment [1] was 734 nM. Moreover, the Ki at BRD4 (BDII_E352-M457) was found to be 653 nM; at BRD4 (BDI_K57-E168), 68 nM.

These data come from US9776990B2, “Isoindolone derivatives” (AbbVie Inc., priority 2012, dated 2017).
